The target of the first assay is T1, hNLRP3 (Homo sapiens, UniProt Q96P20).
T1 construct: THP-1 cells were purchased from the American Type Culture Collection; host or cells: THP-1 cells, PMA-differentiated
T1 sequence (Q96P20 whole entry): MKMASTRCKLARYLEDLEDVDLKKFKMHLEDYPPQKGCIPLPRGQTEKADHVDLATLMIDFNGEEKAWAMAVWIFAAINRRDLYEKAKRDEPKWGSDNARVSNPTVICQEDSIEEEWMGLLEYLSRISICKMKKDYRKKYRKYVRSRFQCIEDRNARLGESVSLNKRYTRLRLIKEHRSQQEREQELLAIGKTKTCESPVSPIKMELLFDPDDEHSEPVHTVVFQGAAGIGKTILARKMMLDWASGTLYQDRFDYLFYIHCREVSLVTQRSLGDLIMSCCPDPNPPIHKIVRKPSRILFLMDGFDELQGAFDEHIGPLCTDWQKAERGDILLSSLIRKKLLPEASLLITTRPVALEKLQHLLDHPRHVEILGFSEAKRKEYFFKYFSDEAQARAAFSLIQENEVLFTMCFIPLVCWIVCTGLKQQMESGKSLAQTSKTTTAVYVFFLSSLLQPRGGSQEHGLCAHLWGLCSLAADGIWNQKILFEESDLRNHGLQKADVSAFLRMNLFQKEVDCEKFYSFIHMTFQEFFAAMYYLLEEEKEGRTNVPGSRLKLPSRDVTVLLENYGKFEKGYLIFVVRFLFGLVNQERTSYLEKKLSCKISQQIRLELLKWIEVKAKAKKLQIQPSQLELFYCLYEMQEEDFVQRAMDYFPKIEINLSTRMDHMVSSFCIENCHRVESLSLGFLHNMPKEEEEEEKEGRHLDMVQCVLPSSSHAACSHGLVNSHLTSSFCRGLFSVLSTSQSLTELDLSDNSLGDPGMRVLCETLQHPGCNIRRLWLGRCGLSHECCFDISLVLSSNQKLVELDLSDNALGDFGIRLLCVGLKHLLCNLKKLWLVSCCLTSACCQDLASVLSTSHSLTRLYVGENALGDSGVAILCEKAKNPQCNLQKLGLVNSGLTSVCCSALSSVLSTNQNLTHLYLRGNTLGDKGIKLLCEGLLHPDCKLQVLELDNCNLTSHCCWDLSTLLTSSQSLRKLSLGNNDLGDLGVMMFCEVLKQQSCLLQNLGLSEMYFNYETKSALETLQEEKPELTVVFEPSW
The experiment in a line: IL-1β production in PMA-differentiated THP-1 cells stimulated with gramicidin. Conditions: gramicidin 5 μM, IL-1β in supernatant, Table 1. It is filed as cell-based. On the procedure: Bioassay: IL-1β Production in PMA-Differentiated THP-1 Cells Stimulated with Gramicidin. Procedure 1:
Cell culture—THP-1 cells were purchased from the American Type Culture Collection and sub-cultured according to instructions from the supplier. Prior to experiments, cells were cultured in RPMI 1640 containing 10% heat inactivated FBS, penicillin (100 units/ml) and streptomycin (100 μg/ml), and maintained in log phase prior to experimental setup. Prior to the experiment THP-1 were treated with PMA (Phorbol 12-myristate 13-acetate) (10 μg/ml) for 24 hours. The day of the experiment the media was removed and attaching cells were treated with trypsin for 2 minutes, cells were then collected, washed with PBS (phosphate buffer saline), spin down, resuspended in 2% heat inactivated FBS with RPMI at a concentration of 1×10^6 cells/ml, and 100 ul was plated in a 96 well plate. Cells were incubated with compounds for 1 hours and then stimulated with Gramicidin (5 μM) (Enzo) for 2 hours. Cell free supernatant was collected and the production of IL-1β was evaluated by ELISA. Compounds were dissolved in dimethyl sulfoxide (DMSO) and added to the culture medium to achieve desired concentration (e.g. 100, 30, 10, 3, 1, 0.3 or 0.1 μM). A vehicle only control was run concurrently with each experiment. Final DMSO concentration was 1%.
THP-1 cells were purchased from the American Type Culture Collection and sub-cultured according to instructions from the supplier. Prior to experiments, cells were cultured in complete RPMI 1640 (containing 10% heat inactivated FBS, penicillin (100 units/ml) and streptomycin (100 μg/ml)), and maintained in log phase prior to experimental setup. Prior to the experiment THP-1 were treated with PMA (Phorbol 12-myristate 13-acetate) (20 ng/ml) for 16-18 hours. On the day of the experiment the media was removed and adherent cells were detached with trypsin for 5 minutes. Cells were then harvested, washed with complete RPMI 1640, spun down, resuspended in RPMI 1640 (containing 2% heat inactivated FBS, penicillin (100 units/ml) and streptomycin (100 μg/ml). The cells were plated in a 384-well plate at a density of 50,000 cells/well (final assay volume 50 μl). Compounds were dissolved in dimethyl sulfoxide (DMSO) and added to the culture medium to achieve desired concentration (e.g. 100, 33, 11, 3.7, 1.2, 0.41, 0.14, 0.046, 0.015, 0.0051, 0.0017 μM). Cells were incubated with compounds for 1 hour and then stimulated with gramicidin (5 μM) (Enzo) for 2 hours. Cell free supernatant was collected and the production of IL-1β was evaluated by HTRF (cisbio). A vehicle only control was run concurrently with each experiment. Final DMSO concentration was 0.38%.
For orientation: IC50 means the midpoint of a concentration-inhibition curve. Low readings indicate greater potency, high ones weaker potency. In the case of `CC(C)c1cc(C#N)cc(C(C)C)c1NC(=O)NS(=O)(=O)c1cc(C(C)(C)O)co1` [Compound 104, N-(4-cyano-2,6-diisopropylphenyl-carbamoyl)-4-(2-hydroxypropan-2-yl)furan-2-sulfonamide], the IC50 is under 1 µM.

The assay is the same for the next values; noted with them: gramicidin 5 μM, IL-1β in supernatant, Table 2.
For the compound `CC(C)(O)c1ccc(S(=O)(=O)NC(=O)Nc2c3c(c(F)c4c2CCC4)CCC3)s1` [Compound 176, N-(8-fluoro-1,2,3,5,6,7-hexahydros-indacen-4-ylcarbamoyl)-5-(2-hydroxypropan-2-yl) thiophene-2-sulfonamide], the 50% inhibitory concentration (IC50) is under 1 µM.

`CCc1cc(C#N)cc(CC)c1NC(=O)NS(=O)(=O)c1cc(C(C)(C)O)cs1` [Compound 159, N-(4-cyano-2,6-diethylphenylcarbamoyl)-4-(2-hydroxypropan-2-yl)thiophene-2-sulfonamide] registered a 50% inhibitory concentration (IC50) of 1 to 5 µM.

`CC(C)(O)c1ncsc1S(=O)(=O)NC(=O)Nc1c2c(c(F)c3c1CCC3)CCC2` [Compound 268] gave an IC50 of 1 to 5 µM.

The compound `O=C(Nc1c2c(c(F)c3c1CCC3)CCC2)NS(=O)(=O)c1ccc(C2(O)CC2)s1` [Compound 200] registered an IC50 of under 1 µM.

`Cc1sc(S(=O)(=O)NC(=O)Nc2c(C(C)C)ccc(C#N)c2C(C)C)cc1C(C)(C)O` [Compound 264, N-(3-cyano-2,6-diisopropylphenylcarbamoyl)-4-(2-hydroxypropan-2-yl)-5-methylthiophene-2-sulfonamide] yielded an IC50 of 5 to 15 µM.

`CC(C)c1cc(F)cc(C(C)C)c1NC(=O)NS(=O)(=O)c1nc(C(C)(C)O)cs1` [Compound 148, N-(4-fluoro-2,6-diisopropylphenylcarbamoyl)-4-(2-hydroxypropan-2-yl) thiazole-2-sulfonamide] registered a half-maximal inhibitory concentration (IC50) of 1 to 5 µM.

`CC(C)(O)c1cnc(S(=O)(=O)NC(=O)Nc2c3c(c(Cl)c4c2CCC4)CCC3)s1` [Compound 221, N-(8-chloro-1,2,3,5,6,7-hexahydros-indacen-4-ylcarbamoyl)-5-(2-hydroxypropan-2-yl)thiazole-2-sulfonamide]: the IC50 was under 1 µM.

The compound `CC(C)c1cc(C#N)cc(C(C)C)c1NC(=O)NS(=O)(=O)c1ccc(C2(O)CC2)s1` [Compound 194, N-(4-cyano-2,6-diisopropylphenylcarbamoyl)-5-(1-hydroxycyclopropyl) thiophene-2-sulfonamide] yielded an IC50 of 1 to 5 µM.

In turn, `CC(C)c1ccc(F)c(C(C)C)c1NC(=O)NS(=O)(=O)c1ncc(C2(O)CCC2)s1` [Compound 169, N-(3-fluoro-2,6-diisopropylphenylcarbamoyl)-5-(1-hydroxycyclobutyl) thiazole-2-sulfonamide] showed a 50% inhibitory concentration (IC50) of 5 to 15 µM.

`CC(C)c1cc(C#N)cc(C(C)C)c1NC(=O)NS(=O)(=O)c1ccc(C(C)(C)O)s1` [Compound 184, N-(4-cyano-2,6-diisopropylphenylcarbamoyl)-5-(2-hydroxypropan-2-yl) thiophene-2-sulfonamide]: the IC50 is under 1 µM.

`CC(C)c1cc(F)cc(C(C)C)c1NC(=O)NS(=O)(=O)c1cc(C2(O)CC2)cs1` [Compound 204, N-(4-fluoro-2,6-diisopropylphenyl-carbamoyl)-4-(1-hydroxycyclo-propyl)thiophene-2-sulfonamide] displayed a half-maximal inhibitory concentration (IC50) of under 1 µM.

In turn, `COc1ccc2c(c1NC(=O)NS(=O)(=O)c1ncc(C(C)(C)O)s1)CCC2` [Compound 182, 5-(2-hydroxypropan-2-yl)-N-(5-methoxy-2,3-dihydro-1H-inden-4-ylcarbamoyl)thiazole-2-sulfonamide] displayed a concentration for half-maximal inhibition (IC50) of 1 to 5 µM.

As to `CC(C)c1ccc(F)c(C(C)C)c1NC(=O)NS(=O)(=O)c1ncc(C2(O)CCCCC2)s1` [Compound 167, N-(3-fluoro-2,6-diisopropylphenylcarbamoyl)-5-(1-hydroxycyclohexyl) thiazole-2-sulfonamide], the IC50 is 5 to 15 µM.

`CC(C)c1cccc(C(C)C)c1NC(=O)NS(=O)(=O)c1ncc(C(C)(C)O)s1` [Compound 261] gave an IC50 of 1 to 5 µM.

As for `CC(C)c1ccc(C#N)c(C(C)C)c1NC(=O)NS(=O)(=O)c1cc(C(C)(C)O)c(Cl)s1` [Compound 265, 5-chloro-N-(3-cyano-2,6-diisopropylphenylcarbamoyl)-4-(2-hydroxypropan-2-yl) thiophene-2-sulfonamide], the concentration for half-maximal inhibition (IC50) was in the range of 5 to 15 µM.

In the case of `CC(C)(O)c1cnc(S(=O)(=O)NC(=O)Nc2c3c(c(C#N)c4c2CCC4)CCC3)s1` [Compound 220, N-(8-cyano-1,2,3,5,6,7-hexahydros-indacen-4-ylcarbamoyl)-5-(2-hydroxypropan-2-yl)thiazole-2-sulfonamide], the IC50 was in the range of 1 to 5 µM.

In turn, `Cc1nc(S(=O)(=O)NC(=O)Nc2c(C(C)C)cc(C#N)cc2C(C)C)sc1C(C)(C)O` [Compound 155] yielded a half-maximal inhibitory concentration (IC50) of 5 to 15 µM.

Take `CC(C)(O)c1cnc(S(=O)(=O)NC(=O)Nc2cccc3c2CCC3)s1` [Compound 190, N-(2,3-dihydro-1H-inden-4-ylcarbamoyl)-5-(2-hydroxypropan-2-yl)thiazole-2-sulfonamide]: the half-maximal inhibitory concentration (IC50) fell in the range of 1 to 5 µM.

In turn, `CC(C)c1cc(C#N)cc(C(C)C)c1NC(=O)NS(=O)(=O)c1cc(C(C)(C)O)c(Cl)s1` [Compound 251, 5-chloro-N-(4-cyano-2,6-diisopropylphenyl-carbamoyl)-4-(2-hydroxypropan-2-yl)thiophene-2-sulfonamide] registered an IC50 of under 1 µM.

Take `Cc1sc(S(=O)(=O)NC(=O)Nc2c(C(C)C)ccc(Cl)c2C(C)C)cc1C(C)(C)O` [Compound 153, N-(3-chloro-2,6-diisopropylphenyl-carbamoyl)-4-(2-hydroxypropan-2-yl)-5-methylthiophene-2-sulfonamide]: the concentration for half-maximal inhibition (IC50) fell in the range of 5 to 15 µM.

In turn, `O=C(Nc1cccc2c1CCC2)NS(=O)(=O)c1cc(C2(O)CC2)co1` [Compound 192, N-(2,3-dihydro-1H-inden-4-ylcarbamoyl)-4-(1-hydroxycyclopropyl) furan-2-sulfonamide] returned an IC50 of 1 to 5 µM.

Take `CC(C)c1cccc(C(C)C)c1NC(=O)NS(=O)(=O)c1ccc(C2(O)CC2)s1` [Compound 201, N-(2,6-diisopropylphenylcarbamoyl)-5-(1-hydroxycyclopropyl) thiophene-2-sulfonamide]: the IC50 is 1 to 5 µM.

`CC(C)c1ccc(F)c(C(C)C)c1NC(=O)NS(=O)(=O)c1ccc(C2(O)CC2)s1` [Compound 195, N-(3-fluoro-2,6-diisopropylphenylcarbamoyl)-5-(1-hydroxycyclopropyl) thiophene-2-sulfonamide]: the IC50 lay within 1 to 5 µM.

In turn, `CCc1cc(C#N)cc(CC)c1NC(=O)NS(=O)(=O)c1ncc(C(C)(C)O)s1` [Compound 158, N-(4-cyano-2,6-diethylphenylcarbamoyl)-5-(2-hydroxypropan-2-yl)thiazole-2-sulfonamide] came in with an IC50 of 1 to 5 µM.

`CC(C)c1ccc(C#N)c(C(C)C)c1NC(=O)NS(=O)(=O)c1cc(C(C)(C)O)cs1` [Compound 262, N-(3-cyano-2,6-diisopropylphenylcarbamoyl)-4-(2-hydroxypropan-2-yl) thiophene-2-sulfonamide] had a concentration for half-maximal inhibition (IC50) of 1 to 5 µM.

On to `CC(C)c1ccc(F)c(C(C)C)c1NC(=O)NS(=O)(=O)c1cnc(C(C)(C)O)s1` [Compound 274], for which the half-inhibitory concentration (IC50) is 5 to 15 µM.

`CC(C)c1cc(F)cc(C(C)C)c1NC(=O)NS(=O)(=O)c1ncc(C(C)(C)O)s1` [Compound 139, N-(4-fluoro-2,6-diisopropylphenyl-carbamoyl)-5-(2-hydroxypropan-2-yl)thiazole-2-sulfonamide] came in with a 50% inhibitory concentration (IC50) of under 1 µM.

For the origin of these results see US11339136B2 (Novartis AG, priority 2016, dated 2022).
